According to patent US20120202794A1 (priority 2011, published 2012):
Read-outs that look alike come from different tables or passages of the source.

Columns and labels:
[1] = tested on: genotype (GT) 1a H77 replicon; assay: Replicon assay, H77 GT 1a replicon in Huh7-Lunet cells (RT-PCR); type: cell-based, HCV; conditions: Hepatitis C virus, GT1A, Huh-7, 96 h, 4 days incubation, read-out: RT-PCR H77 1a Potency EC90
Protocol: Cell Line and Maintenance: The genotype (GT) 1a H77 replicon (Apath LLC Brooklyn, N.Y.) was stably expressed in Huh7-Lunet cells (kindly provided by R. Bartenschlager University of Heidelberg, Heidelberg, Germany) and maintained in Dulbecco's modified Eagle's medium supplemented with 10% fetal bovine serum, 0.1 mM non essential amino acids (NEAA), 4 mM L-glutamine, 1 mM sodium pyruvate and 0.750 mg/mL G418 (Geneticin) (Invitrogen, Carlsbad, Calif.).
Replicon Assay: Inhibition of HCV in the H77 GT 1a replicon (Apath LLC, Brooklyn, N.Y.) was measured by Real-Time PCR (RT-PCR) Replicon cells were added to the plate at 1500 cells/well in 50 μL of medium and 50 μL of 2× drug dilutions were added (in duplicate) per well in a 96 well plate to total 100 μL per well. The plate was incubated at 37° C. in a humidified 8% CO2 atmosphere for 4 days. After incubation, the supernatant was discarded and total RNA was extracted with RNeasy 96 (Qiagen, Valencia Calif.) per manufacturer's instructions. The extracted RNA was amplified as described by Stuyver et al., J. Virol. (2003) 77: 10689-10694, and the ΔCt values for HCV were determined and the EC90 was calculated using GraphPad Prism software (San Diego, Calif.). A “no drug” (medium only) control was used to determine maximum amount of HCV RNA.

[2] = tested on: HCV Replicon 1b; assay: HCV inhibition assay, HCV replicon 1b (Clone A or ET-lunet cells; RT-PCR or luciferase reporter); type: cell-based; conditions: Hepatitis C virus, 96 h, read-out: Replicon 1b potency EC90
In short: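 Inhibition read either as luciferase signal (ET replicon) or as HCV 5′-NTR RNA by RT-PCR relative to rRNA, % = (1−2^−ΔΔCt)×100, against DMSO controls, giving EC50 and EC90. Cells: Clone A or ET-lunet, seeded 1500 or 3000/well, exposed 4 days at 37 °C, 5% CO2, 0.5% DMSO.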

[3] = Cell cytotoxicity assay (MTS), CC90 as reported in Table 1, cell line not stated; type: cell-based; conditions: human; MTS assay; 8 days incubation; cell line not given
In short: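 MTS read-out (490 nm, 2 h dye step) after 8-day exposure at 37° C. Huh7, HepG2, BxPC3 were seeded at 2×10^3 and CEM at 5×10^3 cells/well, with compound serially diluted from 100 μM. CC90 comes from comparison with untreated control wells.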

[4] = HCV replicon 1b, 4 days incubation

With `CC(C)C[C@H]1C(=O)N[C@@H](c2ccccc2)CN1C(=O)c1noc(-c2ccc(F)cc2)n1` [Compound 292, (3S,6S)-4-(5-(4-Fluorophenyl)-1,2,4-oxadiazole-3-carbonyl)-3-isobutyl-6-phenylpiperazin-2-one] the EC90 [1] was 79 nM, the EC90 [2, 4] was 78 nM and the CC90 at 8 days [3] was > 10000 nM.
For `CC(C)C[C@H]1C(=O)N[C@@H](c2ccccc2F)CN1C(=O)c1cc(-c2ccc(F)cc2)on1` [Compound 355, (3S,6S)-6-(2-fluorophenyl)-4-(5-(4-fluorophenyl)isoxazole-3-carbonyl)-3-isobutyl-piperazin-2-one], the EC90 [1] was 160 nM, the EC90 [2, 4] was 93 nM and the CC90 at 8 days [3] was > 10000 nM.
In the case of `CC(C)C[C@H]1C(=O)N[C@@H](c2ccccc2F)CN1C(=O)c1noc(-c2ccc(F)cc2)n1` [Compound 370, (3S,6S)-6-(2-fluorophenyl)-4-(5-(4-fluorophenyl)-1,2,4-oxadiazole-3-carbonyl)-3-isobutylpiperazin-2-one], the EC90 [1] is reported as 99 nM, the EC90 [2, 4] is reported as 61 nM and the CC90 at 8 days [3] is reported as > 10000 nM.
With `CC(C)C[C@H]1C(=O)N[C@@H](c2ccccc2F)CN1C(=O)[C@@H]1C[C@H]1c1ccc(F)cc1` [Compound 373, (3S,6S)-6-(2-fluorophenyl)-4-((1R,2R)-2-(4-fluorophenyl)cyclopropanecarbonyl)-3-isobutylpiperazin-2-one] the EC90 [1] was 87 nM, the EC90 [2, 4] was 57 nM and the CC90 at 8 days [3] was > 10000 nM.
With `C/C=C/[C@H]1CN(C(=O)c2cc(-c3ccc(F)cc3)on2)[C@@H](CC(C)C)C(=O)N1` [Compound 424, (3S,6S)-4-(5-(4-fluorophenyl)isoxazole-3-carbonyl)-3-isobutyl-6-((E)-prop-1-en-1-yl)piperazin-2-one] the EC90 [1] was 82 nM, the EC90 [2, 4] was 64 nM and the CC90 at 8 days [3] was > 10000 nM.
For `CC(C)C[C@H]1C(=O)N[C@@H](c2cccs2)CN1C(=O)c1cc(-c2ccc(F)cc2)on1` [Compound 426, (3S,6R)-4-(5-(4-fluorophenyl)isoxazole-3-carbonyl)-3-isobutyl-6-(thiophen-2-yl)piperazin-2-one], the EC90 [1] was 48 nM, the EC90 [2, 4] was 18 nM and the CC90 at 8 days [3] was > 10000 nM.
With `CC(C)C[C@H]1C(=O)N[C@@H](c2cccs2)CN1C(=O)c1noc(-c2ccc(F)cc2)n1` [Compound 430, (3S,6R)-4-(5-(4-fluorophenyl)-1,2,4-oxadiazole-3-carbonyl)-3-isobutyl-6-(thiophen-2-yl)piperazin-2-one] the EC90 [1] was 18 nM, the EC90 [2, 4] was 2.6 nM and the CC90 at 8 days [3] was > 10000 nM.
For `CCC[C@H]1C(=O)N[C@@H](c2cccs2)CN1C(=O)[C@@H]1C[C@H]1c1ccc(F)cc1` [Compound 495, (3S,6R)-4-((1R,2R)-2-(4-fluorophenyl)cyclopropanecarbonyl)-3-propyl-6-(thiophen-2-yl)piperazin-2-one], the EC90 [2, 4] was 290 nM and the CC90 at 8 days [3] was > 10000 nM.
With `CC(C)C[C@H]1C(=O)N[C@@H](c2ccsc2Cl)CN1C(=O)[C@@H]1C[C@H]1c1ccc(F)cc1` [Compound 500, (3S,6S)-6-(2-chlorothiophen-3-yl)-4-((1R,2R)-2-(4-fluorophenyl)cyclopropane-carbonyl)-3-isobutylpiperazin-2-one] the EC90 [2, 4] was 22 nM and the CC90 at 8 days [3] was > 10000 nM.
In the case of `C=C[C@H]1CN(C(=O)c2cc(-c3ccc(F)cc3)on2)[C@@H](CC(C)C)C(=O)N1` [Compound 506, (3S,6S)-4-(5-(4-fluorophenyl)isoxazole-3-carbonyl)-3-isobutyl-6-vinylpiperazin-2-one], the EC90 [2, 4] is reported as 1050 nM and the CC90 at 8 days [3] is reported as > 10000 nM.
For `CC(C)C[C@H]1C(=O)N[C@@H](C(=O)N(C)C)CN1C(=O)c1cc(-c2ccc(F)cc2)on1` [Compound 507, (2R,5S)-4-(5-(4-fluorophenyl)isoxazole-3-carbonyl)-5-isobutyl-N,N-dimethyl-6-oxopiperazine-2-carboxamide], the EC90 [2, 4] was 840 nM and the CC90 at 8 days [3] was > 10000 nM.
In the case of `CNC(=O)[C@H]1CN(C(=O)c2cc(-c3ccc(F)cc3)on2)[C@@H](CC(C)C)C(=O)N1` [Compound 508, (2R,5S)-4-(5-(4-fluorophenyl)isoxazole-3-carbonyl)-5-isobutyl-N-methyl-6-oxopiperazine-2-carboxamide], the EC90 [2, 4] is reported as > 10000 nM and the CC90 at 8 days [3] is reported as > 10000 nM.
In the case of `CC(C)C[C@H]1C(=O)N[C@@H](c2ncco2)CN1C(=O)c1cc(-c2ccc(F)cc2)on1` [Compound 510, (3S,6R)-4-(5-(4-fluorophenyl)isoxazole-3-carbonyl)-3-isobutyl-6-(oxazol-2-yl)piperazin-2-one], the EC90 [2, 4] is reported as > 10000 nM and the CC90 at 8 days [3] is reported as > 10000 nM.
In the case of `CC(C)C[C@H]1C(=O)N[C@@H](c2ccccc2)CN1C(C)c1cc(-c2ccc(F)cc2)on1` (stereo partly drawn) [Compound 511, (3S,6S)-4-(1-(5-(4-fluorophenyl)isoxazol-3-yl)ethyl)-3-isobutyl-6-phenylpiperazin-2-one], the EC90 [2, 4] is reported as 450 nM and the CC90 at 8 days [3] is reported as > 10000 nM.
With `CC(C)C[C@H]1C(=O)N[C@@H](c2cnco2)CN1C(=O)c1cc(-c2ccc(F)cc2)on1` [Compound 516, (3S,6R)-4-(5-(4-fluorophenyl)isoxazole-3-carbonyl)-3-isobutyl-6-(oxazol-5-yl)piperazin-2-one] the EC90 [2] was 110 nM and the CC90 at 8 days [3] was > 10000 nM.
With `CC(C)C[C@H]1C(=O)N[C@@H](c2cnco2)CN1C(=O)[C@@H]1C[C@H]1c1ccccc1` [Compound 517, (3S,6R)-3-isobutyl-6-(oxazol-5-yl)-4-((1R,2R)-2-phenylcyclopropane-carbonyl)piperazin-2-one] the EC90 [2, 4] was 190 nM and the CC90 at 8 days [3] was > 10000 nM.
For `CC(C)C[C@H]1C(=O)N[C@@H](c2cnco2)CN1C(=O)c1noc(-c2ccc(F)cc2)n1` [Compound 518, (3S,6R)-4-(5-(4-fluorophenyl)-1,2,4-oxadiazole-3-carbonyl)-3-isobutyl-6-(oxazol-5-yl)piperazin-2-one], the EC90 [2, 4] was 58 nM and the CC90 at 8 days [3] was > 10000 nM.
With `CC(C)C[C@H]1C(=O)N[C@@H](c2cnco2)CN1C(=O)c1cc(-c2ccc(F)cc2)no1` [Compound 519, (3S,6R)-4-(3-(4-fluorophenyl)isoxazole-5-carbonyl)-3-isobutyl-6-(oxazol-5-yl)piperazin-2-one] the EC90 [2, 4] was 110 nM and the CC90 at 8 days [3] was > 10000 nM.
With `CC(C)C[C@H]1C(=O)N[C@@H](c2cnco2)CN1C(=O)/C=C/c1ccc(F)cc1F` [Compound 520, (3S,6R)-4-((E)-3-(2,4-difluorophenyl)acryloyl)-3-isobutyl-6-(oxazol-5-yl)piperazin-2-one] the EC90 [2, 4] was 470 nM and the CC90 at 8 days [3] was > 10000 nM.
With `CC(C)C[C@H]1C(=O)N[C@@H](c2cnco2)CN1C(=O)c1cc(-c2ccc(F)cc2F)on1` [Compound 522, (3S,6R)-4-(5-(2,4-difluorophenyl)isoxazole-3-carbonyl)-3-isobutyl-6-(oxazol-5-yl)piperazin-2-one] the EC90 [2, 4] was 270 nM and the CC90 at 8 days [3] was > 10000 nM.
For `CC(C)C[C@H]1C(=O)N[C@@H](c2ccc[nH]2)CN1C(=O)c1cc(-c2ccc(F)cc2)on1` [Compound 523, (3S,6R)-4-(5-(4-fluorophenyl)isoxazole-3-carbonyl)-3-isobutyl-6-(1H-pyrrol-2-yl)piperazin-2-one], the EC90 [2, 4] was 1060 nM and the CC90 at 8 days [3] was > 10000 nM.
In the case of `CC(C)C[C@H]1C(=O)N[C@H](c2ccc[nH]2)CN1C(=O)c1cc(-c2ccc(F)cc2)on1` [Compound 524, (3S,6S)-4-(5-(4-fluorophenyl)isoxazole-3-carbonyl)-3-isobutyl-6-(1H-pyrrol-2-yl)piperazin-2-one], the EC90 [2, 4] is reported as > 10000 nM and the CC90 at 8 days [3] is reported as > 10000 nM.
In the case of `CC(C)C[C@H]1C(=O)N[C@@H](c2ccccc2)N1C(=O)c1cc(-c2ccc(F)cc2)on1` [Compound 528, (2R,5S)-1-(5-(4-fluorophenyl)isoxazole-3-carbonyl)-5-isobutyl-2-phenylimidazolidin-4-one], the EC90 [2, 4] is reported as > 10000 nM and the CC90 at 8 days [3] is reported as > 10000 nM.
In the case of `CC(C)C[C@H]1C(=O)N[C@H](c2ccccc2)N1C(=O)c1cc(-c2ccc(F)cc2)on1` [Compound 529, (2S,5S)-1-(5-(4-fluorophenyl)isoxazole-3-carbonyl)-5-isobutyl-2-phenylimidazolidin-4-one], the EC90 [2, 4] is reported as > 10000 nM and the CC90 at 8 days [3] is reported as > 10000 nM.
For `CC(C)C[C@H]1C(=O)N[C@@H](c2ccccc2)N1C(=O)[C@H]1C[C@@H]1c1ccccc1` [Compound 530, (2R,5S)-5-isobutyl-2-phenyl-1-((1S,2S)-2-phenylcyclopropanecarbonyl)imidazolidin-4-one], the EC90 [2, 4] was > 10000 nM and the CC90 at 8 days [3] was > 10000 nM.
In the case of `CC(C)C[C@H]1C(=O)N[C@@H](c2ccccc2)N1C(=O)[C@H]1C[C@@H]1c1ccc(F)cc1` [Compound 532, (2R,5S)-1-((1S,2S)-2-(4-fluorophenyl)cyclopropanecarbonyl)-5-isobutyl-2-phenyl-imidazolidin-4-one], the EC90 [2, 4] is reported as > 10000 nM and the CC90 at 8 days [3] is reported as > 10000 nM.
